In ChEMBL document CHEMBL5518246, “Discovery of Small Molecule Interleukin 17A Inhibitors with Novel Binding Mode and Stoichiometry: Optimization of DNA-Encoded Chemical Library Hits to In Vivo Active Compounds” (J Med Chem, 2024):
≈ marks a conversion by molar mass, not a printed value.

Experiments:
[1] = Metabolic stability in human liver microsomes assessed as unbound intrinsic clearance at 0.5 uM measured after 4 hrs; format: ADME, Microsome
[2] = Thermodynamic solubility of the compound at pH 7.4 measured after 48 hrs by UHPLC analysis; format: physicochemical; conditions: buffer, read-out: Therm_solubility

SMILES | CL free [1] | solubility thermodynamic at 48 h [2]
C[C@H](NC(=O)[C@]1(NC(=O)c2cc(Cl)c(Cl)[nH]2)CO[C@H](c2ccccc2)C1)c1ncc2c(n1)CN([C@H]1CCN(C)C1)C2 | < 45 mL/min/kg | > 1000 µM
C[C@H](NC(=O)[C@]1(NC(=O)c2cc(Cl)c(Cl)[nH]2)CO[C@H](c2ccccc2)C1)c1ncc2c(n1)CN(CC(F)F)C2 | 55 mL/min/kg | 7.2 µM (≈ 4.17 µg/mL)
C[C@H](NC(=O)[C@H](CCc1ccccc1)NC(=O)c1cc(Cl)c(Cl)[nH]1)c1nc2cnccc2s1 | 500 mL/min/kg | –
C[C@H](NC(=O)[C@H](CCc1ccccc1)NC(=O)c1cc(Cl)c(Cl)[nH]1)c1cn2cccnc2n1 | 200 mL/min/kg | –
C[C@H](NC(=O)[C@]1(NC(=O)c2cc(Cl)c(Cl)[nH]2)CO[C@H](c2ccccc2)C1)c1ncc2c(n1)CN(CC(F)(F)F)C2 | 200 mL/min/kg | 5.3 µM (≈ 3.17 µg/mL)
O=C(N[C@@]1(C(=O)NCc2cn3cccnc3n2)CO[C@H](c2ccccc2)C1)c1cc(Cl)c(Cl)[nH]1 | 63.3 mL/min/kg | –
CC(=O)N1CCO[C@@H](CNC(=O)[C@H](CCc2ccccc2)NC(=O)c2cc(Cl)c(Cl)[nH]2)C1 | 70 mL/min/kg | –
C[C@H](NC(=O)[C@]1(NC(=O)c2cc(Cl)c(Cl)[nH]2)CO[C@H](c2ccccc2)C1)c1cc2c(nn1)COC2 | 102 mL/min/kg | 31 µM (≈ 16 µg/mL)
C[C@H](NC(=O)[C@H](CCc1ccccc1)NC(=O)c1cc(Cl)c(Cl)[nH]1)c1ncccn1 | 200 mL/min/kg | 1.7 µM (≈ 0.759 µg/mL)
C[C@H](NC(=O)[C@]1(NC(=O)c2cc(Cl)c(Cl)[nH]2)CO[C@H](c2ccccc2)C1)c1ncc2c(n1)CN(CCC(F)(F)F)C2 | 183 mL/min/kg | –
O=C(CN1C(=O)[C@@H](NC(=O)[C@@H](NC(=O)c2cc(Cl)c(Cl)[nH]2)C2CCCCC2)CSc2ccccc21)Nc1ccccc1 | 35000 mL/min/kg | –
O=C(N[C@]1(C(=O)NCc2cn3cccnc3n2)CO[C@@H](c2ccccc2)C1)c1cc(Cl)c(Cl)[nH]1 | < 35 mL/min/kg | –
O=C(N[C@@H](CCc1ccccc1)C(=O)NCCC1(O)CCOCC1)c1cc(Cl)c(Cl)[nH]1 | 160 mL/min/kg | –
CNC(=O)[C@H](CCc1ccccc1)NC(=O)c1cc(C)c[nH]1 | 35 mL/min/kg | –
COC[C@H](NC(=O)[C@H](CCc1ccccc1)NC(=O)c1cc(Cl)c(Cl)[nH]1)c1cn2cccnc2n1 | 107 mL/min/kg | –
C[C@H](NC(=O)[C@]1(NC(=O)c2cc(Cl)c(Cl)[nH]2)CO[C@H](c2ccccc2)C1)c1ncc2c(n1)CN(C1COC1)C2 | < 28.3 mL/min/kg | 280 µM (≈ 160 µg/mL)
O=C(N[C@@H](CCc1ccccc1)C(=O)NCC1(CO)CCOCC1)c1cc(Cl)c(Cl)[nH]1 | 135 mL/min/kg | –
C[C@H](NC(=O)[C@]1(NC(=O)c2cc(Cl)c(Cl)[nH]2)CO[C@H](c2ccccc2)C1)c1ncc2c(n1)CN([C@@H]1CCN(C)C1)C2 | 400 mL/min/kg | > 1000 µM
O=C(N[C@@H](CCc1ccccc1)C(=O)NC[C@H]1COCCO1)c1cc(Cl)c(Cl)[nH]1 | 98.3 mL/min/kg | –
CNC(=O)[C@H](CCc1ccccc1)NC(=O)c1cc(Cl)c(Cl)[nH]1 | < 40 mL/min/kg | –
CN1CCN(CCNC(=O)[C@H](CCc2ccccc2)NC(=O)c2cc(Cl)c(Cl)[nH]2)CC1 | 217 mL/min/kg | –
O=C(N[C@H](C(=O)NCc1cn2cccnc2n1)[C@H]1C[C@@H]1c1ccccc1)c1cc(Cl)c(Cl)[nH]1 | 533 mL/min/kg | –
O=C(N[C@@H](CCc1ccccc1)C(=O)NC1(c2cn3cccnc3n2)CC1)c1cc(Cl)c(Cl)[nH]1 | 58.3 mL/min/kg | –

SMILES | CL free [1] | solubility thermodynamic at 48 h [2]
O=C(N[C@@H](CCc1ccccc1)C(=O)NCC1(O)CCOCC1)c1cc(Cl)c(Cl)[nH]1 | 113 mL/min/kg | –
CNC(=O)[C@@H](NC(=O)c1cc(Cl)c(Cl)[nH]1)C1Cc2ccccc2C1 | 145 mL/min/kg | –
O=C(N[C@@H](CCc1ccccc1)C(=O)NCc1ncc(CO)cn1)c1cc(Cl)c(Cl)[nH]1 | 71.7 mL/min/kg | 73 µM (≈ 33.8 µg/mL)
CC(=O)N1CCO[C@H](CNC(=O)[C@H](CCc2ccccc2)NC(=O)c2cc(Cl)c(Cl)[nH]2)C1 | 56.7 mL/min/kg | –
COCc1cccc([C@@H]2C[C@](NC(=O)c3cc(Cl)c(Cl)[nH]3)(C(=O)N[C@@H](C)c3ncc4c(n3)CN(C3CCN(C)CC3)C4)CO2)c1 | < 35 mL/min/kg | 660 µM (≈ 433 µg/mL)
C[C@H](NC(=O)[C@]1(NC(=O)c2cc(Cl)c(Cl)[nH]2)CO[C@H](c2ccccc2)C1)c1ncc2c(n1)CN(CC#N)C2 | 120 mL/min/kg | 61 µM (≈ 33.8 µg/mL)
O=C(N[C@H](C(=O)NCc1cn2cccnc2n1)[C@H]1CCc2ccccc2C1)c1cc(Cl)c(Cl)[nH]1 | 667 mL/min/kg | –
CNC(=O)[C@@H](NC(=O)c1cc(Cl)c(Cl)[nH]1)C1CCCCC1 | 90 mL/min/kg | –
C[C@H](NC(=O)[C@]1(NC(=O)c2cc(Cl)c(Cl)[nH]2)CO[C@H](c2ccccc2)C1)c1ncc2c(n1)CN(C1CN(C)C1)C2 | < 26.7 mL/min/kg | 600 µM (≈ 351 µg/mL)
C[C@H](NC(=O)[C@]1(NC(=O)c2cc(Cl)c(Cl)[nH]2)CO[C@H](c2ccccc2)C1)c1ncc(CO)cn1 | < 28.3 mL/min/kg | 67 µM (≈ 33.8 µg/mL)
CC(C)(NC(=O)[C@H](CCc1ccccc1)NC(=O)c1cc(Cl)c(Cl)[nH]1)c1cn2cccnc2n1 | 350 mL/min/kg | –
COCc1cnc(CNC(=O)[C@H](CCc2ccccc2)NC(=O)c2cc(Cl)c(Cl)[nH]2)nc1 | 167 mL/min/kg | 5.7 µM (≈ 2.72 µg/mL)
C[C@H](NC(=O)[C@]1(NC(=O)c2cc(Cl)c(Cl)[nH]2)CO[C@H](c2ccccc2)C1)c1ncc2c(n1)CCC2 | 333 mL/min/kg | 3.8 µM (≈ 1.95 µg/mL)
C[C@H](NC(=O)[C@H](CCc1ccccc1)NC(=O)c1cc(Cl)c(Cl)[nH]1)c1cn2ccsc2n1 | 1680 mL/min/kg | –
C[C@H](NC(=O)[C@H](CCc1ccccc1)NC(=O)c1cc(Cl)c(Cl)[nH]1)c1cn2nccnc2n1 | 200 mL/min/kg | –
O=C(N[C@@H](CCc1ccccc1)C(=O)NCc1ccccc1)c1cc(Cl)c(Cl)[nH]1 | 1530 mL/min/kg | 145 µM (≈ 62.4 µg/mL)
O=C(N[C@H](C(=O)NCc1cn2cccnc2n1)[C@@H]1CCc2ccccc2C1)c1cc(Cl)c(Cl)[nH]1 | 1050 mL/min/kg | –
C[C@@H](NC(=O)[C@H](CCc1ccccc1)NC(=O)c1cc(Cl)c(Cl)[nH]1)c1cn2cccnc2n1 | 267 mL/min/kg | –
COc1cccc([C@@H]2C[C@](NC(=O)c3cc(Cl)c(Cl)[nH]3)(C(=O)N[C@@H](C)c3ncc4c(n3)CN(C3CCN(C)CC3)C4)CO2)c1 | < 41.7 mL/min/kg | 532 µM (≈ 342 µg/mL)
O=C(NC(CCc1ccccc1)C(=O)NCc1cn2cccnc2n1)c1cc(Cl)c(Cl)[nH]1 (racemic) | 217 mL/min/kg | –
O=C(NC(CCc1ccccc1)C(=O)NCc1cnc(N2CCOCC2)nc1)c1cc(Cl)c(Cl)[nH]1 (racemic) | 1030 mL/min/kg | –
O=C(NC(CCc1ccccc1)C(=O)NCc1cn2ccsc2n1)c1cc(Cl)c(Cl)[nH]1 (racemic) | 1120 mL/min/kg | –

Other lines, results leading:

CL free [1] | solubility thermodynamic at 48 h [2] | SMILES
233 mL/min/kg | – | O=C(N[C@@H](CCc1ccccc1)C(=O)NCc1cn2cccnc2n1)c1cc(Cl)c(Cl)[nH]1
6000 mL/min/kg | – | CN1C(=O)[C@@H](NC(=O)[C@@H](NC(=O)c2cc(Cl)c(Cl)[nH]2)C2CCCCC2)COc2ccccc21
78.3 mL/min/kg | 0.82 µM (≈ 0.425 µg/mL) | COCc1cnc([C@H](C)NC(=O)[C@]2(NC(=O)c3cc(Cl)c(Cl)[nH]3)CO[C@H](c3ccccc3)C2)nc1
115 mL/min/kg | – | O=C(N[C@@]1(C(=O)NCc2cn3cccnc3n2)CO[C@@H](c2ccccc2)C1)c1cc(Cl)c(Cl)[nH]1
217 mL/min/kg | 719 µM (≈ 371 µg/mL) | C[C@H](NC(=O)[C@]1(NC(=O)c2cc(Cl)c(Cl)[nH]2)CO[C@H](c2ccccc2)C1)c1ncc2c(n1)CNC2
88.3 mL/min/kg | 190 µM (≈ 101 µg/mL) | C[C@H](NC(=O)[C@]1(NC(=O)c2cc(Cl)c(Cl)[nH]2)CO[C@H](c2ccccc2)C1)c1ncc2c(n1)CN(C)C2
85 mL/min/kg | – | CNC(=O)[C@@H]1C[C@@H](c2ccccc2)CN1C(=O)c1cc(Cl)c(Cl)[nH]1
333 mL/min/kg | – | C[C@H](NC(=O)[C@H](CCc1ccccc1)NC(=O)c1cc(Cl)c(Cl)[nH]1)c1cn2ccoc2n1
217 mL/min/kg | – | O=C(N[C@H](C(=O)NCc1cn2cccnc2n1)[C@@H]1C[C@H]1c1ccccc1)c1cc(Cl)c(Cl)[nH]1
60 mL/min/kg | – | O=C(N[C@@H](CCc1ccccc1)C(=O)NC[C@@H]1COCCO1)c1cc(Cl)c(Cl)[nH]1
< 38.3 mL/min/kg | 654 µM (≈ 417 µg/mL) | C[C@H](NC(=O)[C@]1(NC(=O)c2cc(Cl)c(Cl)[nH]2)CO[C@H](c2cccc(C#N)c2)C1)c1ncc2c(n1)CN(C1CCN(C)CC1)C2
125 mL/min/kg | – | CC[C@H](NC(=O)[C@H](CCc1ccccc1)NC(=O)c1cc(Cl)c(Cl)[nH]1)c1cn2cccnc2n1
183 mL/min/kg | 60 µM (≈ 31 µg/mL) | C[C@H](NC(=O)[C@]1(NC(=O)c2cc(Cl)c(Cl)[nH]2)CO[C@H](c2ccccc2)C1)c1cnc2c(n1)COC2
938 mL/min/kg | – | O=C(N[C@@H](CCc1ccccc1)C(=O)N[C@@H](CO)c1cn2cccnc2n1)c1cc(Cl)c(Cl)[nH]1
120 mL/min/kg | – | O=C(N[C@H](C(=O)NCc1cn2cccnc2n1)C1Cc2ccccc2C1)c1cc(Cl)c(Cl)[nH]1
1300 mL/min/kg | 230 µM (≈ 99.2 µg/mL) | O=C(N[C@@H](CCc1ccccc1)C(=O)NCc1cccnc1)c1cc(Cl)c(Cl)[nH]1
43.3 mL/min/kg | – | O=C(N[C@]1(C(=O)NCc2cn3cccnc3n2)CO[C@H](c2ccccc2)C1)c1cc(Cl)c(Cl)[nH]1
46.7 mL/min/kg | 25 µM (≈ 10.8 µg/mL) | O=C(N[C@@H](CCc1ccccc1)C(=O)NCc1ncccn1)c1cc(Cl)c(Cl)[nH]1
< 33 mL/min/kg | – | CNC(=O)[C@H](CC(C)(C)C)NC(=O)c1cc(Cl)c(Cl)[nH]1
115 mL/min/kg | – | O=C(NC1(C(=O)NCc2cn3cccnc3n2)Cc2ccccc2C1)c1cc(Cl)c(Cl)[nH]1
817 mL/min/kg | – | O=C(NC(CCc1ccccc1)C(=O)NCc1cccnc1N1CCOCC1)c1cc(Cl)c(Cl)[nH]1 (racemic)
